Measurements: PubChem BioAssay AID248 (DTP/NCI, 2004)
“And” between values parts separate entries of the source, which are not always exact repeats. Identical values can stand only once. Inconclusive results and toxic doses are left out. Cut-off read from the data, not from the text of the source: active = T/C of 150% or more; inactive = T/C below 125%.

System: L1210 leukemia ip in BDF1 mice, survival T/C
Assay: NCI In Vivo Anticancer Drug Screen. Data for tumor model L1210 Leukemia (intraperitoneal) in B6D2F1 (BDF1) mice
Settings: endpoint: mean survival time, higher = longer survival
Method in brief: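 In this screen, tumor-bearing mice given compound are compared to those given vehicle, and their survival values are reported as a treated-to-control quotient.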

[1] = dose: 100.0 mg/kg/injection, schedule: Q01DX001 (ip), vehicle: other
[2] = dose: 100.0 mg/kg/injection, schedule: Q04DX002 (ip), vehicle: Klucel (hydroxypropylcellulose) (HPC)
[3] = dose: 200.0 mg/kg/injection, schedule: Q01DX001 (ip), vehicle: other
[4] = dose: 200.0 mg/kg/injection, schedule: Q04DX002 (ip), vehicle: Klucel (hydroxypropylcellulose) (HPC)
[5] = dose: 400.0 mg/kg/injection, schedule: Q01DX001 (ip), vehicle: other
[6] = dose: 100.0 mg/kg/injection, schedule: Q01DX009 (ip), vehicle: saline with Tween-80
[7] = dose: 200.0 mg/kg/injection, schedule: Q01DX009 (ip), vehicle: saline with Tween-80
[8] = dose: 100.0 mg/kg/injection, schedule: Q01DX001 (ip), vehicle: Klucel (hydroxypropylcellulose) (HPC)
[9] = dose: 200.0 mg/kg/injection, schedule: Q01DX001 (ip), vehicle: Klucel (hydroxypropylcellulose) (HPC)
[10] = dose: 100.0 mg/kg/injection, schedule: Q04DX003 (ip), vehicle: saline with Tween-80
[11] = dose: 200.0 mg/kg/injection, schedule: Q04DX003 (ip), vehicle: saline with Tween-80
[12] = dose: 400.0 mg/kg/injection, schedule: Q01DX009 (ip), vehicle: saline with Tween-80
[13] = dose: 400.0 mg/kg/injection, schedule: Q04DX003 (ip), vehicle: saline with Tween-80

Measured: T/C

CCCC/C(=N\NC(N)=S)c1ccc(F)cc1
inactive: dose: 8.0 mg/kg/injection, schedule: Q01DX Z (ip), vehicle: methylcellulose (MC) 95 % of control | dose: 15.0 mg/kg/injection, schedule: Q01DX Z (ip), vehicle: methylcellulose (MC) 89 % of control | dose: 30.0 mg/kg/injection, schedule: Q01DX Z (ip), vehicle: methylcellulose (MC) 98 % of control | dose: 30.0 mg/kg/injection, schedule: Q01DX Z (oral), vehicle: methylcellulose (MC) 86 % of control | dose: 60.0 mg/kg/injection, schedule: Q01DX Z (ip), vehicle: methylcellulose (MC) 87 % of control

COc1cccc(C(=O)O)c1[N+](=O)[O-]
inactive: dose: 50.0 mg/kg/injection, schedule: Q01DX001 (ip), vehicle: other 103 % of control | [1] 97 % of control | [2] 106 % of control | [3] 115 % of control | [4] 95 % of control | [5] 97 % of control | dose: 400.0 mg/kg/injection, schedule: Q04DX002 (ip), vehicle: Klucel (hydroxypropylcellulose) (HPC) 88 % of control

N=c1ccn(C(=O)C2=Cc3cc(Cl)ccc3OC2)cc1
inactive: [6] 92 % of control | [7] 102 % of control

CC(=O)NC(C)C(C)C (configuration not stated)
inactive: dose: 100.0 mg/kg/injection, schedule: Q04DX003 (ip), vehicle: saline 94 % of control | dose: 200.0 mg/kg/injection, schedule: Q04DX003 (ip), vehicle: saline 107 % of control | dose: 400.0 mg/kg/injection, schedule: Q04DX003 (ip), vehicle: saline 104 % of control

CCCCCCCCCCC(S(=O)(=O)CC)S(=O)(=O)CC
inactive: [8] 97 % of control | [9] 94 % of control

CC(Cl)(Cl)CC(O)(C(F)(F)F)C(F)(F)F
inactive: dose: 50.0 mg/kg/injection, schedule: Q04DX003 (ip), vehicle: saline with Tween-80 95 % of control | [10] 105 % of control | [11] 91 % of control

O=c1ccc2ccccc2n1Cc1ccc2ccccc2n1
inactive: dose: 12.5 mg/kg/injection, schedule: Q01DX001 (ip), vehicle: acetone 100 % of control | dose: 12.5 mg/kg/injection, schedule: Q04DX003 (ip), vehicle: saline 96 % of control | dose: 25.0 mg/kg/injection, schedule: Q01DX001 (ip), vehicle: acetone 92 % of control | dose: 25.0 mg/kg/injection, schedule: Q04DX003 (ip), vehicle: saline 91 % of control | dose: 50.0 mg/kg/injection, schedule: Q01DX001 (ip), vehicle: acetone 95 % of control | dose: 50.0 mg/kg/injection, schedule: Q04DX003 (ip), vehicle: saline 96 % of control | dose: 75.0 mg/kg/injection, schedule: Q04DX003 (ip), vehicle: saline 95 % of control | [1] 97 % of control | [6] 104 % of control | dose: 100.0 mg/kg/injection, schedule: Q04DX003 (ip), vehicle: other 109 % of control | dose: 115.0 mg/kg/injection, schedule: Q04DX003 (ip), vehicle: saline 90 % of control | [3] 100 % of control | [7] 95 % of control | dose: 200.0 mg/kg/injection, schedule: Q04DX003 (ip), vehicle: other 104 % of control | [5] 94 % of control | [12] 101 % of control | dose: 400.0 mg/kg/injection, schedule: Q04DX003 (ip), vehicle: other 104 % of control

CCCCn1cnc2c(SSc3ncnc4c3ncn4CCCC)ncnc21
inactive: dose: 37.5 mg/kg/injection, schedule: Q01DX Z (ip), vehicle: saline 109 % of control | dose: 150.0 mg/kg/injection, schedule: Q01DX Z (ip), vehicle: saline 124 % of control | dose: 166.0 mg/kg/injection, schedule: Q04DX003 (ip), vehicle: gum acacia 121 % of control

CC(=O)Nc1ccc(Cc2ccc(Br)cc2)cc1
inactive: dose: 100.0 mg/kg/injection, schedule: Q01DX001 (ip), vehicle: saline 96 % of control | dose: 200.0 mg/kg/injection, schedule: Q01DX001 (ip), vehicle: saline 106 % of control

Cc1ccc(NC(=O)c2ccc([N+](=O)[O-])cc2)c(C)c1
inactive: [8] 91 % of control | [6] 96 % of control | [10] 94 % of control | [9] 94 % of control | [7] 102 % of control | [11] 96 % of control | dose: 400.0 mg/kg/injection, schedule: Q01DX001 (ip), vehicle: Klucel (hydroxypropylcellulose) (HPC) 112 % of control | [12] 96 % of control | [13] 99 % of control

CCOC(=O)N/N=C\c1cc(OC)c(OC)c(OC)c1
inactive: dose: 50.0 mg/kg/injection, schedule: Q01DX009 (ip), vehicle: saline with Tween-80 103 % of control | [6] 98 % of control | [10] 102 % of control | [11] 103 % of control

O=C(c1ccco1)C(O)c1ccco1 (configuration not stated)
inactive: [2] 96 % of control | [4] 104 % of control

CC(O)CN(CCN(CC(C)O)CC(C)O)CCN(CC(C)O)CC(C)O.O=S(=O)([O-])[O-].[Cu+2] (configuration not stated)
inactive: dose: 5.0 mg/kg/injection, schedule: Q01DX001 (ip), vehicle: saline 102 % of control | dose: 10.0 mg/kg/injection, schedule: Q01DX001 (ip), vehicle: saline 91 % of control

CCCCNS(=O)(=O)c1ccc(NC(=O)c2ccc3ccccc3c2O)c([N+](=O)[O-])c1
inactive: [10] 90 % of control | [11] 88 % of control | [13] 88 % of control

O=[N+]([O-])c1ccc2c(c1)P(=O)(O)c1cc([N+](=O)[O-])ccc1-2
inactive: dose: 75.0 mg/kg/injection, schedule: Q01DX001 (ip), vehicle: saline 96 % of control | dose: 150.0 mg/kg/injection, schedule: Q01DX001 (ip), vehicle: saline 95 % of control | dose: 300.0 mg/kg/injection, schedule: Q01DX001 (ip), vehicle: saline 98 % of control

O=C(Nc1ccc(Nc2ccccc2)cc1)Nc1ccccc1C(F)(F)F
inactive: dose: 50.0 mg/kg/injection, schedule: Q01DX001 (ip), vehicle: carboxymethylcellulose (CMC) 95 % of control | dose: 50.0 mg/kg/injection, schedule: Q04DX003 (ip), vehicle: carboxymethylcellulose (CMC) 100 % of control | dose: 100.0 mg/kg/injection, schedule: Q01DX001 (ip), vehicle: carboxymethylcellulose (CMC) 105 % of control | dose: 100.0 mg/kg/injection, schedule: Q01DX009 (ip), vehicle: carboxymethylcellulose (CMC) 88 % of control | dose: 100.0 mg/kg/injection, schedule: Q04DX002 (ip), vehicle: carboxymethylcellulose (CMC) 102 % of control and 106 % of control | dose: 100.0 mg/kg/injection, schedule: Q04DX003 (ip), vehicle: carboxymethylcellulose (CMC) 93 % of control | dose: 200.0 mg/kg/injection, schedule: Q01DX001 (ip), vehicle: carboxymethylcellulose (CMC) 92 % of control | dose: 200.0 mg/kg/injection, schedule: Q01DX009 (ip), vehicle: carboxymethylcellulose (CMC) 86 % of control and 92 % of control | dose: 200.0 mg/kg/injection, schedule: Q04DX002 (ip), vehicle: carboxymethylcellulose (CMC) 94 % of control and 97 % of control | dose: 400.0 mg/kg/injection, schedule: Q01DX009 (ip), vehicle: carboxymethylcellulose (CMC) 92 % of control | dose: 400.0 mg/kg/injection, schedule: Q04DX002 (ip), vehicle: carboxymethylcellulose (CMC) 94 % of control and 92 % of control

CCC[CH2][Tl]([Br])[CH2]CCC
inactive: dose: 100.0 mg/kg/injection, schedule: Q04DX002 (ip), vehicle: saline with Tween-80 98 % of control | dose: 200.0 mg/kg/injection, schedule: Q04DX002 (ip), vehicle: saline with Tween-80 103 % of control | dose: 400.0 mg/kg/injection, schedule: Q04DX002 (ip), vehicle: saline with Tween-80 106 % of control

CC1=CC(C)(C)NC(=S)N1c1cc(Cl)ccc1Cl
inactive: [6] 87 % of control | [7] 90 % of control | dose: 224.0 mg/kg/injection, schedule: Q01DX Z (ip), vehicle: methylcellulose (MC) 105 % of control | dose: 334.0 mg/kg/injection, schedule: Q01DX Z (ip), vehicle: methylcellulose (MC) 89 % of control | [12] 92 % of control | dose: 500.0 mg/kg/injection, schedule: Q01DX Z (ip), vehicle: methylcellulose (MC) 86 % of control
